From article PMC7880572 (ACS Chemical Neuroscience, 2021)
Like-named read-outs stand apart in the source and are kept apart here.

Legend:
in vitro = conditions: PAMPA, pH 7.4
[1] = literature reported PAMPA-BBB permeability; ref 1 (Di et al., 2003); cited from earlier work
MAO B [2] = molecular target: T1, MAO B (Homo sapiens, UniProt P27338); assay: MAO B inhibition (fluorimetric kynuramine assay, inhibition kinetics); format: biochemical; conditions: for IC50: mean ± SEM, n = 3
T1 construct: purchased Sigma-Aldrich
T1 sequence (P27338 1-520): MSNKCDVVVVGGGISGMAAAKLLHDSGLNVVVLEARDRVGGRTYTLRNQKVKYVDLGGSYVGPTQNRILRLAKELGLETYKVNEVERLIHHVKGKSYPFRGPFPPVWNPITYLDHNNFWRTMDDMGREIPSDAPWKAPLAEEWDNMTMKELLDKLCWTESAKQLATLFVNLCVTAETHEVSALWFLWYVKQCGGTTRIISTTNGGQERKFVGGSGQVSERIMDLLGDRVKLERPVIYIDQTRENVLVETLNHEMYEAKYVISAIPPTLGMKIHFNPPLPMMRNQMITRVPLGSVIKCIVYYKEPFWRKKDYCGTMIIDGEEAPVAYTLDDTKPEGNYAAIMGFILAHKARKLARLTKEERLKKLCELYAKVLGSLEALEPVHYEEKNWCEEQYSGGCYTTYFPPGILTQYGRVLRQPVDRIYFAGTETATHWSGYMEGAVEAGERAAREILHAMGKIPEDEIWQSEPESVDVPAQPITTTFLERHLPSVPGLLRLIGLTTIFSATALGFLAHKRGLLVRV

[3] = based on the PAMPA-BBB classification range from Di et al.
hMAO A = molecular target: T2, hMAO A (Homo sapiens, UniProt P21397); assay: MAO A inhibition (fluorimetric kynuramine assay); format: biochemical; conditions: mean ± SEM, n = 3
T2 construct: purchased Sigma-Aldrich
T2 sequence (P21397 1-527): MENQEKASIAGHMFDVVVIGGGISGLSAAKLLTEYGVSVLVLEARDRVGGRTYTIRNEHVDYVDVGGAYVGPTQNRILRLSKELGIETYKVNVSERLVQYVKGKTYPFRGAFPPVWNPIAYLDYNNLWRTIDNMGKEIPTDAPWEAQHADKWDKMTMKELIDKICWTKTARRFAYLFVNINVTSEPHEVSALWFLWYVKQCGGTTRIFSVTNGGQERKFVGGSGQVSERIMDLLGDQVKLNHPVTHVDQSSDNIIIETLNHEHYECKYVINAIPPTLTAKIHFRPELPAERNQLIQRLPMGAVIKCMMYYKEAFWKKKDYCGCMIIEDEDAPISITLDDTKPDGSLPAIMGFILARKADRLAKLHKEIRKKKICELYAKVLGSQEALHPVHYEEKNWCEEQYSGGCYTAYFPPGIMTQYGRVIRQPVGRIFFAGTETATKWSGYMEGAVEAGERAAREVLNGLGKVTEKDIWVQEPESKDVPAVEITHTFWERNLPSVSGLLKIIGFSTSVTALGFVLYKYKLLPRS

MAO B [4] = molecular target: T1, MAO B; assay: MAO B kynuramine assay in spectrophotometric mode (4-hydroxyquinoline absorbance at 316 nm), incl. time course; format: biochemical
Aβ40 [5] = molecular target: T3, Aβ40 (Homo sapiens, UniProt P05067); assay: Inhibition of self-induced Aβ40 aggregation (ThT fluorescence, HFIP); format: biochemical; conditions: Aβ40 30 μM, 2 h at 25 °C, PBS 2% HFIP; mean ± SEM, n = 3; read-out: Aβ40 aggr IC50
T3 construct: samples of Aβ40 (30 μM) were coincubated for 2 h at 25 °C with test molecules; purchased EzBiolab, Carmel, IN, USA
T3 sequence (P05067 672-711 limits assumed): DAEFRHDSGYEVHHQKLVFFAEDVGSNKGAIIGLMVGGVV
Description: In vitro inhibition of Aβ40 aggregation was assessed following a previously reported thioflavin T (ThT) fluorescence-based method involving the use of hexafluoroisopropanol (HFIP) as aggregation enhancer. […].
In vitro inhibition assay of Aβ40 aggregation has been previously reported[41] and adapted to a 96-well plate platform.
(§1) After incubation in 96-well black, nonbinding microplates (Greiner Bio-One GmbH, Frickenhausen, Germany), thioflavin T (25 μM) was added and fluorimetric reads (ex 440, em 485 nm) were performed in a multiplate reader Infinite M1000 Pro (Tecan, Cernusco sul Naviglio, Italy). Experiments were run in triplicate. Results were expressed by statistical analysis while IC50 values were obtained by nonlinear regression using Prism software (GraphPad Prism version 5.00 for Windows, GraphPad Software, San Diego, CA, USA).

[6] = molecular target: T4, eeAChE (AChE from electric eel) (Electrophorus electricus, UniProt O42275); assay: biochemical; conditions: mean ± SEM, n = 3
T4 construct: purchased Sigma-Aldrich, Milan, Italy
T4 sequence (O42275 24-633): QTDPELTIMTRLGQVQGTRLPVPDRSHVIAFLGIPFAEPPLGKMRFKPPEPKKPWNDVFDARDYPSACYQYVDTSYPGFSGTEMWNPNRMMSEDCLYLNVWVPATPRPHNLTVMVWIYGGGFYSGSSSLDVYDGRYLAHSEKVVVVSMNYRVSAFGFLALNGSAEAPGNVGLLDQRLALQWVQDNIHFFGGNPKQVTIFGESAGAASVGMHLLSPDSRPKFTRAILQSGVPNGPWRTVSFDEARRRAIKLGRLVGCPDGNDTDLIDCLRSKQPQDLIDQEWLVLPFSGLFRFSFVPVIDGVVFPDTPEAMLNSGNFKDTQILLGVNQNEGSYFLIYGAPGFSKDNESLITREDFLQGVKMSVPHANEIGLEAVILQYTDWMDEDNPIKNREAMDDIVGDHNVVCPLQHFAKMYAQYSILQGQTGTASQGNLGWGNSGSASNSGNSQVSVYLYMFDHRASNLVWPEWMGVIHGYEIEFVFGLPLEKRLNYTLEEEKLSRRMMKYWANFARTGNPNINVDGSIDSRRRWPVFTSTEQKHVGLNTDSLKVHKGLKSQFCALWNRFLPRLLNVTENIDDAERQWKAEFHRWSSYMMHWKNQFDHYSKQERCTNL

[7] = molecular target: T5, esBChE (BChE from equine serum) (Equus caballus, UniProt P81908); assay: biochemical; conditions: mean ± SEM, n = 3
T5 construct: BChE from horse serum (13 U/mL); purchased Sigma-Aldrich, Milan, Italy; host or cells: horse serum
T5 sequence (P81908 whole entry): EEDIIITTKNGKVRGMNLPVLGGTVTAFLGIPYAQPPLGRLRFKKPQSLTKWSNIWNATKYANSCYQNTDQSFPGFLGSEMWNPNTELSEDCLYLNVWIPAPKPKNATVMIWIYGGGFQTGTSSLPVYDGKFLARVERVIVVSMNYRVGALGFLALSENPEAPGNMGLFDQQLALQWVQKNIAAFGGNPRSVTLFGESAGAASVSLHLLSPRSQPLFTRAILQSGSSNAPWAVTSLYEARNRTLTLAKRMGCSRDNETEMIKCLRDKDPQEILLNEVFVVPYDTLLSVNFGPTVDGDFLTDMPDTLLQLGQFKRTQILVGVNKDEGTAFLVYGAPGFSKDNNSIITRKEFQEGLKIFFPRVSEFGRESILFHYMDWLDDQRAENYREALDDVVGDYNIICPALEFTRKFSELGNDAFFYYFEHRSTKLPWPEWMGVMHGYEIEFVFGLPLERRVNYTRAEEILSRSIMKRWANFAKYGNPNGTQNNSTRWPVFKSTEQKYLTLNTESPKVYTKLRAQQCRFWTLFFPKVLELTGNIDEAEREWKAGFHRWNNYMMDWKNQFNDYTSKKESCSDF

Aβ42 = molecular target: T6, Aβ42 (Homo sapiens, UniProt P05067); assay: Inhibition of Aβ42 fibrillation by ThT fluorescence assay; format: biochemical; conditions: Aβ42 30 μM, 37 °C, 48 h
T6 construct: purchased EzBiolab, Carmel, IN, USA
T6 sequence (P05067 672-713 limits assumed): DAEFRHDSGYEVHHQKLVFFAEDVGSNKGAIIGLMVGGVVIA
Description: Its high propensity to self-aggregate allows a fast execution of aggregation assays without the need of aggregation enhancers as for Aβ40.
Quercetin (QUR) was used as reference compound.
as §1

PHF6 tau sequence = PHF6 tau sequence (Homo sapiens, UniProt P10636); assay: Inhibition of PHF6 aggregation (ThT fluorescence); conditions: for inhibition at 10 µM: read-out: PHF6 aggregation inhibition
cerebellar granule cells = assay: In vitro cytotoxicity (MTT); format: cell-based; conditions: CGCs, compound 10 μM, 48 h, mean ± SEM
Description: . […] For a more meaningful assessment of the value of the present compounds, the issue of their toxicity, in comparison to established drugs for AD, should deserve further investigation.
Cerebellar granule cells were prepared from 8-day-old Sprague Dawley rats as described previously.[66] Cells were studied from the 6th to the 12th day in vitro. The experimental procedures and care of the animals were performed in compliance with the Directive of the EU Parliament and Council of September 22, 2010 (2010/63/EU) and were approved by the Italian Ministry of Health (COD. 75F11.N.6DX) in accordance with D.M. 116/1992. All efforts were made in order to minimize animal suffering and the number of animals necessary to obtain reliable results.
[…]. Cells were maintained in 5% CO2 at 37 °C. The cell viability was assessed by the MTT assay 48 h after the treatment. […]. The survival rates of viable cells were calculated by comparing the optical absorbance of treated samples with that of the untreated controls. All experiments were repeated at least three times independently, and data are expressed as the mean ± SEM.

R3 tau sequence = molecular target: T7, R3 tau sequence (Homo sapiens, UniProt P10636); assay: Inhibition of R3 aggregation (ThT fluorescence); format: biochemical; conditions: R3 25 μM, 4 h at 37 °C; mean of two independent experiments
T7 construct: The 30-amino acid peptide (V306-Q336) R3; purchased Bachem, Bubendorf, Switzerland
T7 sequence (P10636 623-653 limits assumed): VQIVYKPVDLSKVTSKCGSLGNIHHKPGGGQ
Text: . The 30-amino acid peptide (V306-Q336) R3 is a high-repeated domain containing the PHF6 sequence and present in all tau isoforms.[62] Its high propensity to self-aggregate in buffered solutions, even in the absence of aggregation inducers such as heparin,[63] makes R3 a reliable surrogate of full-length tau protein for in vitro experiments. In our assay protocol, the commercial R3 peptide was pretreated with 1,1,1-trifluoroethanol (TFE) overnight in order to dissolve any preformed aggregate and reestablish the random coil arrangement, then diluted in PBS at the test concentration of 25 μM.
A stock solution of 1.5 mM R3 (trifluoroacetate salt; Bachem, Bubendorf, Switzerland) was prepared in TFE and left overnight at room temperature. […] . […] IC50 values were calculated by means of Prism as the mean of two independent experiments.

AChE = tested on: AChE; design: method as in PMID 25924599; conditions: first series; cited from earlier work
Aβ40 [8] = molecular target: T3, Aβ40; design: method as in PMID 25924599; conditions: first series; cited from earlier work
BChE = tested on: BChE; design: method as in PMID 25924599; conditions: first series; cited from earlier work

## Cc1nnc2n1-c1ccc(Cl)cc1C(c1ccccc1)=NC2 [Alprazolam]
In vitro
  Papp: 4.8 ×10⁻⁶ cm/s
[1]
  Pe,rep: 5.4 10-6 cm/s

## O=C1C(Cl)=C(NCc2ccccc2)C(=O)c2ccccc21 [Compound 2]
MAO B [2]; coincubation up to 2 h vs 5 min
  increase of Ki for higher coincubation times: about 20 fold
MAO B [2]; coincubation with enzyme limited to 5 min
  MAO B inhibition mechanism: competitive inhibition
MAO B [2]; higher coincubation times (up to 2 h)
  MAO B inhibition mechanism: noncompetitive
MAO B [2]
  IC50: 0.0077 ± 0.0013 µM
MAO B [2]; ratio of inhibitory activities
  selectivity MAO B versus MAO A: 473 fold
In vitro
  Papp at 16 h: 28.4 ± 2.1 ×10⁻⁶ cm/s
[3]
  CNS prediction: CNS+
hMAO A
  IC50: 3.6 ± 0.3 µM
MAO B [4]; 10 nM inhibitor, absorption of 4-hydroxyquinoline at 316 nm
  MAO B enzymatic activity in time course: still present even after 3 h
MAO B [4]; absorbance of 4-hydroxyquinoline at 316 nm
  IC50: 0.018 µM
Aβ40 [5]
  IC50: 3.2 ± 0.8 µM
[6]
  IC50: 9.2 ± 0.6 µM
[7]
  inhibition at 10 µM: 26%
Aβ42; lower concentration used (5 μM)
  inhibition of Aβ42 aggregation: strong inhibitor
PHF6 tau sequence
  inhibition at 10 µM: 91%
Cerebellar granule cells
  cell viability vs control (%): 89 ± 14%

## O=C1C(Cl)=C(NCCc2ccccc2)C(=O)c2ccccc21 [Compound 3]
MAO B [2]
  IC50: 0.031 ± 0.001 µM
hMAO A; at 10 μM
  inhibition at 10 µM: 41%
Aβ40 [5]
  IC50: 4.4 ± 0.3 µM
[6]
  IC50: 7.9 ± 0.8 µM
[7]
  inhibition at 10 µM: 24%
R3 tau sequence
  IC50: 1.19 ± 0.44 µM
PHF6 tau sequence
  IC50: 4.96 ± 0.75 µM
  inhibition at 10 µM: > 95%

## O=C1c2ccccc2C(=O)c2c(NCCc3ccccc3)cccc21 [Compound 11, 1-(Phenethylamino)-9,10-anthraquinone]
MAO B [2]
  IC50: 0.57 ± 0.02 µM
In vitro
  Papp at 16 h: 24.7 ± 2.2 ×10⁻⁶ cm/s
[3]
  CNS prediction: CNS+
hMAO A
  IC50: 3.1 ± 0.3 µM
Aβ40 [5]
  IC50: 2.1 ± 0.2 µM
[6]
  IC50: 7.3 ± 0.7 µM
[7]
  IC50: 1.7 ± 0.3 µM
R3 tau sequence
  IC50: 0.36 ± 0.02 µM
Aβ42; 100 and 5 μM
  inhibition of Aβ42 aggregation (activity profile): best activity profile
PHF6 tau sequence
  IC50: 1.78 ± 0.23 µM
  inhibition at 10 µM: > 95%
Cerebellar granule cells
  cell viability vs control (%): 85 ± 15%

## O=C1c2ccccc2C(=O)c2c(NC[C@@H]3CCCN4CCCC[C@H]34)cccc21 [IX]
AChE
  IC50: 0.84 µM
Aβ40 [8]
  IC50: 6.4 µM

## O=C1Nc2ccc(Cl)cc2C(c2ccccc2)=NC1O (stereo not drawn) [Oxazepam]
In vitro
  Papp: 9.1 ×10⁻⁶ cm/s
[1]
  Pe,rep: 10 10-6 cm/s

## O=C1C(Cl)=C(NCCCSC[C@@H]2CCCN3CCCC[C@H]23)C(=O)c2ccccc21 [VII]
BChE
  IC50: 4.1 µM
Aβ40 [8]
  IC50: 61 µM

## CCN(CC)CCCNc1cccc2c1C(=O)c1ccccc1C2=O [XIII]
Aβ40 [8]
  IC50: 61 µM
